Results published in patent US20260022142A1, “MACROCYCLIC IMMUNOMODULATORS” (Bristol-Myers Squibb Company, priority 2022, published 2026).
Numbered stars: 1 amine (or outer) side, 2 acyl side, 3 side chain; on linkers, the order of the positions; unused ones are H or OH. Bridge positions count the residues as written; N and C are the ends. Square brackets hold non-standard residues; d marks the D form. Peptide text beside a SMILES is read from it. * marks the point of attachment. ξ: configuration not given here. Bip = N[C@@H](Cc1ccc(-c2ccccc2)cc1)C(=O)O; Ala(2-furyl) = N[C@@H](Cc1ccco1)C(=O)O; Phe(3-Me) = Cc1cccc(C[C@H](N)C(=O)O)c1; NMeAEEA = CN(CCOCCOCC(=O)[*:2])[*:1]; 4Pal = N[C@@H](Cc1ccncc1)C(=O)O; Cha = N[C@@H](CC1CCCCC1)C(=O)O; NMeN = CN[C@@H](CC(N)=O)C(=O)O; dNMeN = CN[C@H](CC(N)=O)C(=O)O; Thr(3ξ) = CC(O)[C@H](N)C(=O)O; Carboxymethyl = O=C(O)C*; Orn = NCCC[C@H](N)C(=O)O; Aun = NCCCCCCCCCCC(=O)O; Dab = NCC[C@H](N)C(=O)O; AEEA = NCCOCCOCC(=O)O

Target: T1, PD-1/PD-L1 interaction (PE-labeled human PD-L1-Ig binding to Jurkat cell line over-expressing human PD-1) (Homo sapiens, UniProt Q15116)
T1 construct: expressed in transfected cells; host or cells: Jurkat
Assay: Jurkat-PD-1 Cell Binding High-Content Screening Assay (CBA)
Assay type: cell-based
Conditions: Jurkat cell line over-expressing human PD-1; PE-labeled PD-L1-Ig 20 nM final; read-out: Jurkat hPD1-PDL1 IC50
Method in brief: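 Human PD-L1-Ig carrying a covalent PE label on its Ig tag serves as the probe, applied at 20 nM final to compound-treated (2 h, 37° C) Jurkat-hPD-1 cells in medium with 10% fetal calf serum. After one hour, fixation and nuclear staining precede high-content image analysis.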

T1 sequence (Q15116 25-288): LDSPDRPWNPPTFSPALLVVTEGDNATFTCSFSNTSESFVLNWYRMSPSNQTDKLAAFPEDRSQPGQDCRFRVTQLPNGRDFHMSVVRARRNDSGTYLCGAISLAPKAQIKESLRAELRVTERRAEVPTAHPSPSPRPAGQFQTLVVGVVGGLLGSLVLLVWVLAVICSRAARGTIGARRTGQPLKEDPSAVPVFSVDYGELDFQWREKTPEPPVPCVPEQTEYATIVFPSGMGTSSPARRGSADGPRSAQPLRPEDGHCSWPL

| Compound | IC50 |
| --- | --- |
| Cc1cccc(C[C@@H]2NC(=O)[C@H](CC(=O)O)NC(=O)[C@H](Cc3ccc(OCC(=O)O)cc3)NC(=O)[C@H](C(C)O)NC(=O)CSC[C@@H](C(=O)N(C)[C@@H](CC(N)=O)C(=O)NCCCCCCCCCCC(=O)O)NC(=O)[C@H](CCCCN)NC(=O)[C@H](C(C)C)NC(=O)[C@H](CC3CCCCC3)NC(=O)[C@H](CCN)NC(=O)[C@@H](CC(C)C)NC(=O)[C@H](CCCN)NC(=O)[C@H](C(C)C)NC(=O)[C@H](Cc3ccc(-c4ccccc4)cc3)NC(=O)[C@H](C(C)C)NC2=O)c1 (stereo partly drawn) [Compound 3340] ({CH2CO}-[Thr(3ξ)]Y(Carboxymethyl)D[Phe(3-Me)]V[Bip]V[Orn][dL][Dab][Cha]VKC[NMeN][Aun]-OH; thioether N-14) | 8.7 nM |
| CC(=O)NCCCC[C@@H]1NC(=O)[C@H](C(C)C)NC(=O)[C@H](CC2CCCCC2)NC(=O)[C@H](CCN)NC(=O)[C@@H](CC(C)C)NC(=O)[C@H](CCCN)NC(=O)[C@H](C(C)C)NC(=O)[C@H](Cc2ccc(-c3ccccc3)cc2)NC(=O)[C@H](C(C)C)NC(=O)[C@H](Cc2c[nH]c3ccccc23)NC(=O)[C@H](CC(=O)O)NC(=O)[C@H](Cc2ccc(OCC(=O)O)cc2)NC(=O)[C@H](CCCNC(=N)N)NC(=O)CSC[C@@H](C(=O)NCCOCCOCC(=O)NCCCCCCCCCCC(=O)O)NC1=O [Compound 3341] ({CH2CO}-RY(Carboxymethyl)DWV[Bip]V[Orn][dL][Dab][Cha]VK(Ac)C[AEEA][Aun]-OH; thioether N-14) | 7.4 nM |
| Cc1cccc(C[C@@H]2NC(=O)[C@H](CC(=O)O)NC(=O)[C@H](Cc3ccc(OCC(=O)O)cc3)NC(=O)[C@H](CCCNC(=N)N)NC(=O)CSC[C@@H](C(=O)N[C@@H](CCN)C(=O)NCCCCCCCCCCC(=O)O)NC(=O)[C@H](CCC(=O)O)NC(=O)[C@H](C(C)C)NC(=O)[C@H](CC3CCCCC3)NC(=O)[C@H](CCN)NC(=O)[C@@H](CC(C)C)NC(=O)[C@H](CCCN)NC(=O)[C@H](Cc3ccc(O)cc3)NC(=O)[C@H](Cc3ccc(-c4ccccc4)cc3)NC(=O)[C@H](CC(C)C)NC2=O)c1 [Compound 3342] ({CH2CO}-RY(Carboxymethyl)D[Phe(3-Me)]L[Bip]Y[Orn][dL][Dab][Cha]VEC[Dab][Aun]-OH; thioether N-14) | 38.3 nM |
| CC(C)C[C@H]1NC(=O)[C@H](CCCN)NC(=O)[C@H](Cc2ccc(O)cc2)NC(=O)[C@H](Cc2ccc(-c3ccccc3)cc2)NC(=O)[C@H](C(C)C)NC(=O)[C@H](Cc2c[nH]c3ccccc23)NC(=O)[C@H](CC(=O)O)NC(=O)[C@H](Cc2ccc(OCC(=O)O)cc2)NC(=O)[C@H](CCCNC(=N)N)NC(=O)CSC[C@@H](C(=O)N[C@@H](CCN)C(=O)NCCCCCCCCCCC(=O)O)NC(=O)[C@H](Cc2ccc(O)cc2)NC(=O)[C@H](C(C)C)NC(=O)[C@H](CC2CCCCC2)NC(=O)[C@H](CCN)NC1=O [Compound 3343] ({CH2CO}-RY(Carboxymethyl)DWV[Bip]Y[Orn][dL][Dab][Cha]VYC[Dab][Aun]-OH; thioether N-14) | 66.2 nM |
| CC(C)C[C@H]1NC(=O)[C@H](CCCN)NC(=O)[C@H](C(C)C)NC(=O)[C@H](Cc2ccc(-c3ccccc3)cc2)NC(=O)[C@H](C(C)C)NC(=O)[C@H](Cc2c[nH]c3ccccc23)NC(=O)[C@H](CC(=O)O)NC(=O)[C@H](Cc2ccc(OCC(=O)O)cc2)NC(=O)[C@H](CCCNC(=N)N)NC(=O)CSC[C@@H](C(=O)N[C@@H](CCCN)C(=O)NCCCCCCCCCCC(=O)O)NC(=O)[C@H](C(C)O)NC(=O)[C@H](C(C)C)NC(=O)[C@H](CC2CCCCC2)NC(=O)[C@H](CCN)NC1=O (stereo partly drawn) [Compound 3344] ({CH2CO}-RY(Carboxymethyl)DWV[Bip]V[Orn][dL][Dab][Cha]V[Thr(3ξ)]C[Orn][Aun]-OH; thioether N-14) | 14.6 nM |
| CC(C)C[C@H]1NC(=O)[C@H](CCCN)NC(=O)[C@H](C(C)C)NC(=O)[C@H](Cc2ccc(-c3ccccc3)cc2)NC(=O)[C@H](C(C)C)NC(=O)[C@H](Cc2c[nH]c3ccccc23)NC(=O)[C@H](CC(=O)O)NC(=O)[C@H](Cc2ccc(OCC(=O)O)cc2)NC(=O)[C@H](CCCNC(=N)N)NC(=O)CSC[C@@H](C(=O)N[C@@H](CCCN)C(=O)NCCCCCCCCCCC(=O)O)NC(=O)[C@H](CCC(=O)O)NC(=O)[C@H](C(C)C)NC(=O)[C@H](CC2CCCCC2)NC(=O)[C@H](CCN)NC1=O [Compound 3345] ({CH2CO}-RY(Carboxymethyl)DWV[Bip]V[Orn][dL][Dab][Cha]VEC[Orn][Aun]-OH; thioether N-14) | 9.1 nM |
| CC(C)C[C@H]1NC(=O)[C@H](CCCN)NC(=O)[C@H](C(C)C)NC(=O)[C@H](Cc2ccc(-c3ccccc3)cc2)NC(=O)[C@H](C(C)C)NC(=O)[C@H](Cc2c[nH]c3ccccc23)NC(=O)[C@H](CC(=O)O)NC(=O)[C@H](Cc2ccc(OCC(=O)O)cc2)NC(=O)[C@H](CCCNC(=N)N)NC(=O)CSC[C@@H](C(=O)N[C@@H](CCCN)C(=O)NCCCCCCCCCCC(=O)O)NC(=O)[C@H](CCCN)NC(=O)[C@H](C(C)C)NC(=O)[C@H](CC2CCCCC2)NC(=O)[C@H](CCN)NC1=O [Compound 3346] ({CH2CO}-RY(Carboxymethyl)DWV[Bip]V[Orn][dL][Dab][Cha]V[Orn]C[Orn][Aun]-OH; thioether N-14) | 10.9 nM |
| CC(C)C[C@H]1NC(=O)[C@H](CCCN)NC(=O)[C@H](C(C)C)NC(=O)[C@H](Cc2ccc(-c3ccccc3)cc2)NC(=O)[C@H](C(C)C)NC(=O)[C@H](Cc2c[nH]c3ccccc23)NC(=O)[C@H](CC(=O)O)NC(=O)[C@H](Cc2ccc(OCC(=O)O)cc2)NC(=O)[C@H](CCCNC(=N)N)NC(=O)CSC[C@@H](C(=O)NCCOCCOCC(=O)NCCCCCCCCCCC(=O)O)NC(=O)[C@H](CCCN)NC(=O)[C@H](C(C)C)NC(=O)[C@H](CC2CCCCC2)NC(=O)[C@H](CCN)NC1=O [Compound 3347] ({CH2CO}-RY(Carboxymethyl)DWV[Bip]V[Orn][dL][Dab][Cha]V[Orn]C[AEEA][Aun]-OH; thioether N-14) | 3.7 nM |
| Cc1cccc(C[C@@H]2NC(=O)[C@H](CC(=O)O)NC(=O)[C@H](Cc3ccc(OCC(=O)O)cc3)NC(=O)[C@H](Cc3ccncc3)NC(=O)CSC[C@@H](C(=O)N[C@@H](CCCN)C(=O)NCCCCCCCCCCC(=O)O)NC(=O)[C@H](CCCN)NC(=O)[C@H](C(C)C)NC(=O)[C@H](CC3CCCCC3)NC(=O)[C@H](CCN)NC(=O)[C@@H](CC(C)C)NC(=O)[C@H](CCCN)NC(=O)[C@H](C(C)C)NC(=O)[C@H](Cc3ccc(-c4ccccc4)cc3)NC(=O)[C@H](C(C)C)NC2=O)c1 [Compound 3348] ({CH2CO}-[4Pal]Y(Carboxymethyl)D[Phe(3-Me)]V[Bip]V[Orn][dL][Dab][Cha]V[Orn]C[Orn][Aun]-OH; thioether N-14) | 12.8 nM |
| CC(C)C[C@H]1NC(=O)[C@H](CCCN)NC(=O)[C@H](Cc2ccc(O)cc2)NC(=O)[C@H](Cc2ccc(-c3ccccc3)cc2)NC(=O)[C@H](C(C)C)NC(=O)[C@H](Cc2c[nH]c3ccccc23)NC(=O)[C@H](CC(=O)O)NC(=O)[C@H](Cc2ccc(OCC(=O)O)cc2)NC(=O)[C@H](CCCNC(=N)N)NC(=O)CSC[C@@H](C(=O)N[C@@H](CCN)C(=O)NCCCCCCCCCCC(=O)O)NC(=O)[C@H](CCC(=O)O)NC(=O)[C@H](C(C)C)NC(=O)[C@H](CC2CCCCC2)NC(=O)[C@H](CCN)NC1=O [Compound 3349] ({CH2CO}-RY(Carboxymethyl)DWV[Bip]Y[Orn][dL][Dab][Cha]VEC[Dab][Aun]-OH; thioether N-14) | 8.5 nM |
| Cc1cccc(C[C@@H]2NC(=O)[C@H](CC(=O)O)NC(=O)[C@H](Cc3ccc(OCC(=O)O)cc3)NC(=O)[C@H](C(C)O)NC(=O)CSC[C@@H](C(=O)NCCOCCOCC(=O)NCCCCCCCCCCC(=O)O)NC(=O)[C@H](CCCN)NC(=O)[C@H](C(C)C)NC(=O)[C@H](CC3CCCCC3)NC(=O)[C@H](CCN)NC(=O)[C@@H](CC(C)C)NC(=O)[C@H](CCN)NC(=O)[C@H](C(C)C)NC(=O)[C@H](Cc3ccc(-c4ccccc4)cc3)NC(=O)[C@H](C(C)C)NC2=O)c1 (stereo partly drawn) [Compound 3350] ({CH2CO}-[Thr(3ξ)]Y(Carboxymethyl)D[Phe(3-Me)]V[Bip]V[Dab][dL][Dab][Cha]V[Orn]C[AEEA][Aun]-OH; thioether N-14) | 6.3 nM |
| Cc1cccc(C[C@@H]2NC(=O)[C@H](CC(=O)O)NC(=O)[C@H](Cc3ccc(OCC(=O)O)cc3)NC(=O)[C@H](CCCNC(=N)N)NC(=O)CSC[C@@H](C(=O)NCCOCCOCC(=O)NCCCCCCCCCCC(=O)O)NC(=O)[C@H](CCCN)NC(=O)[C@H](C(C)C)NC(=O)[C@H](CC3CCCCC3)NC(=O)[C@H](CCN)NC(=O)[C@@H](CC(C)C)NC(=O)[C@H](CCN)NC(=O)[C@H](C(C)C)NC(=O)[C@H](Cc3ccc(-c4ccccc4)cc3)NC(=O)[C@H](C(C)C)NC2=O)c1 [Compound 3351] ({CH2CO}-RY(Carboxymethyl)D[Phe(3-Me)]V[Bip]V[Dab][dL][Dab][Cha]V[Orn]C[AEEA][Aun]-OH; thioether N-14) | 4.2 nM |
| Cc1cccc(C[C@@H]2NC(=O)[C@H](CC(=O)O)NC(=O)[C@H](Cc3ccc(OCC(=O)O)cc3)NC(=O)[C@H](Cc3ccco3)NC(=O)CSC[C@@H](C(=O)N(C)[C@H](CC(N)=O)C(=O)NCCCCCCCCCCC(=O)O)NC(=O)[C@H](CCCN)NC(=O)[C@H](C(C)C)NC(=O)[C@H](CC3CCCCC3)NC(=O)[C@H](CCN)NC(=O)[C@@H](CC(C)C)NC(=O)[C@H](CCN)NC(=O)[C@H](C(C)C)NC(=O)[C@H](Cc3ccc(-c4ccccc4)cc3)NC(=O)[C@H](C(C)C)NC2=O)c1 [Compound 3352] ({CH2CO}-[Ala(2-furyl)]Y(Carboxymethyl)D[Phe(3-Me)]V[Bip]V[Dab][dL][Dab][Cha]V[Orn]C[dNMeN][Aun]-OH; thioether N-14) | 26.5 nM |
| Cc1cccc(C[C@@H]2NC(=O)[C@H](CC(=O)O)NC(=O)[C@H](Cc3ccc(OCC(=O)O)cc3)NC(=O)[C@H](C(C)O)NC(=O)CSC[C@@H](C(=O)N(C)CCOCCOCC(=O)NCCCCCCCCCCC(=O)O)NC(=O)[C@H](CCCN)NC(=O)[C@H](C(C)C)NC(=O)[C@H](CC3CCCCC3)NC(=O)[C@H](CCN)NC(=O)[C@@H](CC(C)C)NC(=O)[C@H](CCN)NC(=O)[C@H](C(C)C)NC(=O)[C@H](Cc3ccc(-c4ccccc4)cc3)NC(=O)[C@H](C(C)C)NC2=O)c1 (stereo partly drawn) [Compound 3353] ({CH2CO}-[Thr(3ξ)]Y(Carboxymethyl)D[Phe(3-Me)]V[Bip]V[Dab][dL][Dab][Cha]V[Orn]C[NMeAEEA][Aun]-OH; thioether N-14) | 140 nM |
